This passage reports RP-LC retention time results from the METLIN SMRT retention time set (Domingo-Almenara et al. 2019).

The structures appear in SMILES notation.

The data set in a line: gradient 5% acetonitrile 3 min, to 50% in 2 min, to 85% in 15 min, held 3 min, 100 µL/min. The settings on record: column: Zorbax Extend-C18 2.1 x 50 mm; eluents: water / acetonitrile, 0.1% formic acid. An outline of the steps:
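The mobile phases were water and acetonitrile, each with 0.1% formic acid, pumped at 100 μL/min through a Zorbax Extend-C18 column (2.1 × 50 mm, 1.8 μm). Pure standards were injected as mixtures of ~100 molecules and detected by a quadrupole time-of-flight mass spectrometer in positive and negative ionization mode. Retention time came from computationally picked adduct peaks, each inspected by hand.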
Turning to `Cc1n[nH]c(C)c1CNC(=O)C1CCN(C(=O)c2ncn3c2COC(c2ccc(F)cc2)C3)CC1` (stereo unspecified), the RP-LC retention time was 627 s.

For `COc1ccc(C(C)NC(=O)c2cc(NC(C)=O)cc3nc(C)ccc23)cc1` (stereo unspecified), the RP-LC retention time was found to be 618 s.

Take `COc1ccc(OC)c(NC(=O)N2CCC(C)(C(=O)NCc3ccc4c(c3)OCO4)CC2)c1`: the RP-LC retention time was 806 s.

Take `O=c1ccc(N2CCC(NS(=O)(=O)c3ccccc3Cl)CC2)nn1CC1CC1`: the RP-LC retention time stood at 747 s.

In the case of `CCc1cc(C(=O)N2CCN(CC)CC2)nc2cc(-c3cccs3)nn12`, the RP-LC retention time came to 646 s.

`COc1ccccc1CCC(=O)N(C)C[C@@]12CCC[C@H]1N(C)C(=O)CC2` registered an RP-LC retention time of 776 s.

The compound `COc1ccc(NC(=O)c2ccc3ncsc3c2)c([N+](=O)[O-])c1` displayed an RP-LC retention time of 800 s.

`COc1ccccc1OCC1c2ccsc2CCN1C(=O)CN(CC1CC1)C(=O)C1CC1` (stereo unspecified) yielded an RP-LC retention time of 928 s.

As to `CCc1nccn1Cc1noc(-c2cccc(C)c2)n1`, the RP-LC retention time amounted to 658 s.

`O=C(NCc1ccccc1)c1ccc(-c2cccs2)nc1` registered an RP-LC retention time of 884 s.

For `Oc1c(C(c2ccccn2)N2CCN(c3ccccc3F)CC2)ccc2cccnc12` (stereo unspecified), the RP-LC retention time is 567 s.

Consider `O=C(Cn1cc(-c2ccccc2)c2ncnc(N3CCOCC3)c21)NC1CCCC1`, for which the RP-LC retention time is 717 s.

The compound `O=C(c1ccc2cc[nH]c2c1)N1CCN(C(=O)c2nnn3c2COC(c2ccc(Cl)cc2)C3)CC1` (stereo unspecified) displayed an RP-LC retention time of 918 s.

As for `Cc1nc(CCNC(=O)C2CCN(S(=O)(=O)c3ccc(F)c(F)c3)CC2)cs1`, the RP-LC retention time is 724 s.

For `COc1ccc(C2CCCN2C(=O)c2ccn(C)n2)cc1` (stereo unspecified), the RP-LC retention time was 730 s.

`NC(=O)c1cc(N2CC2)c([N+](=O)[O-])cc1[N+](=O)[O-]` registered an RP-LC retention time of 650 s.

Take `Fc1ccc(-c2nnc(Cc3nc(-c4ccc(Cl)cc4)no3)o2)cc1`: the RP-LC retention time was 1080 s.

In the case of `O=C(Cn1c(Cc2ccccc2)nc2ccccc21)N1CCCCCC1`, the RP-LC retention time was found to be 670 s.

In turn, `Cc1cc(C)c(OCC(=O)N(Cc2ccc(C)o2)C2CCS(=O)(=O)C2)c(C)c1` (stereo unspecified) registered an RP-LC retention time of 1030 s.

The compound `CCn1c(=O)n(CC(=O)NCCN2CCCCC2C)c(=O)c2cnc(-c3ccc(Cl)cc3)nc21` (stereo unspecified) came in with an RP-LC retention time of 751 s.

In the case of `O=C(NCc1ccc(F)cc1F)c1ccc(Cn2c(C(F)(F)F)nc3cccnc32)cc1`, the RP-LC retention time was determined as 925 s.

On to `COc1ccccc1CNC(=O)c1c(O)c2cccnc2[nH]c1=O`, for which the RP-LC retention time is 933 s.

Compound `Cc1ccc(CNC(=O)N2CCCC2c2nc(-c3ccccc3)no2)cc1` (stereo unspecified) had an RP-LC retention time of 994 s.

For the compound `O=C(c1cccc(F)c1)N1CCC2(CC1)N=C(c1ccccc1)NO2`, the RP-LC retention time stood at 739 s.

`CCc1nnc2ccc(-c3noc(Cc4cc(OC)cc(OC)c4)n3)cn12`: the RP-LC retention time was found to be 844 s.

Compound `O=C(O)c1cccc(Nc2c(-c3ccc(F)cc3)nc3cnccn23)c1` came in with an RP-LC retention time of 702 s.

Consider `CC1(CNC(=O)c2cccc(Br)c2)CCOCC1`, for which the RP-LC retention time was determined as 797 s.

As to `O=C(CSc1ncc(-c2ccccc2)[nH]1)N1CCCc2ccccc21`, the RP-LC retention time was 630 s.

As to `O=C(COc1ccccc1Cl)Nc1ccc(-c2nc(-c3ccccc3)no2)cc1`, the RP-LC retention time was found to be 1280 s.

Regarding `Cc1cccc(S(=O)(=O)N2CC3CN(C(=O)c4ccco4)CC(C2)O3)c1`, the RP-LC retention time turned out to be 933 s.

`COc1ccccc1CNC(=O)C1CCCN(c2nnc3ccc(Cl)cn23)C1` (stereo unspecified) registered an RP-LC retention time of 683 s.

For `Cc1ccc(-c2cc(C(=O)N(C)C)n(C)c2)cc1`, the RP-LC retention time amounted to 891 s.

`O=C(Nc1cc(-c2ccccn2)no1)c1ccccc1F` came in with an RP-LC retention time of 774 s.

As to `COc1ccc(-n2c(CN3CCN(C(=O)NC4CCCCC4)CC3)nc3cccnc32)cc1`, the RP-LC retention time turned out to be 668 s.

The compound `CC1CCCN(c2ccc(-c3noc(CN4CCN(c5ccccc5F)CC4)n3)cn2)C1` (stereo unspecified) yielded an RP-LC retention time of 1090 s.

As for `COC(=O)c1ccc(C2CC(=O)NC3=C2C(=O)CC(C)(C)C3)cc1` (stereo unspecified), the RP-LC retention time is 675 s.

Turning to `CC1CCc2nc3ncn(CC(=O)NC(C)c4ccccc4)c(=O)c3cc2C1` (stereo unspecified), the RP-LC retention time worked out at 762 s.

`CCOC(=O)C(=O)N1CCN(c2ncnc3c2nnn3C)CC1`: the RP-LC retention time stood at 643 s.

As to `O=C([C@@H]1C[C@H](F)CN1C(=O)c1ccccc1F)N1CCCCC1`, the RP-LC retention time was found to be 677 s.

`CN1C(=O)CCC2(CNC(=O)c3cccn3C)CCC=C12` (stereo unspecified) displayed an RP-LC retention time of 720 s.

On to `CC1CCCCN1CCCNC(=O)Cn1ccc2cc(S(=O)(=O)N3CCCCCC3)ccc21` (stereo unspecified), for which the RP-LC retention time amounted to 682 s.

`CCC(=O)NCc1nc2c(n1C)CN(S(=O)(=O)c1ccc(F)c(F)c1)CC2` had an RP-LC retention time of 571 s.

`Cc1cc(C(=O)NCc2ccc(C)o2)c2cc(Br)ccc2n1` came in with an RP-LC retention time of 801 s.

In turn, `CC(C)c1c(C2CCN(C(=O)c3cccc(Br)c3)CC2)noc1N` gave an RP-LC retention time of 834 s.

In turn, `Cc1cccc(NC(=O)C2CCCN(c3nnc(C)c4c(C)n(-c5ccccc5)nc34)C2)c1C` (stereo unspecified) had an RP-LC retention time of 754 s.

The compound `O=C(Nc1ccc2c(c1)CCCN2C(=O)C1CC1)c1cc(Br)ccc1Cl` showed an RP-LC retention time of 879 s.

Compound `COC(=O)C1C(=O)C2=C(CC1C)NC(C)=C(C(=O)OCCOC(C)C)C2c1ccccc1F` (stereo unspecified) yielded an RP-LC retention time of 914 s.

Compound `CC1=C(c2ccccc2)S(=O)(=O)N=C1N1CCCN(C(=O)C(C)c2ccccc2)CC1` (stereo unspecified) had an RP-LC retention time of 873 s.

Compound `O=C(Cn1nc2c(cc1=O)CCCCC2)NCCc1nc(-c2ccccc2)cs1` yielded an RP-LC retention time of 843 s.

`COc1ccc(N2CC(c3nc(-c4ccncc4)no3)CC2=O)cc1Cl` (stereo unspecified) gave an RP-LC retention time of 752 s.

As for `O=S(=O)(c1cc(-c2noc(C3CCCC3)n2)cs1)N(Cc1cccs1)C1CCCC1`, the RP-LC retention time came to 933 s.

Compound `Cc1cccc(Sc2nccnc2N2CCCC(C(=O)NC3CCCCCC3)C2)c1` (stereo unspecified) yielded an RP-LC retention time of 1230 s.

Consider `Cn1cc(CCN2CCC(C(=O)NCC3CCCCC3)CC2)c2cccnc21`, for which the RP-LC retention time is 619 s.

For the compound `Fc1ccc(-c2nnc(Cc3nc(-c4cccs4)no3)o2)cc1`, the RP-LC retention time was 926 s.

`CCOC(=O)C1CCN(C(=O)C2CCCN(c3nc4cccnc4n(CC)c3=O)C2)CC1` (stereo unspecified) displayed an RP-LC retention time of 969 s.

`O=C(O)C1CC(=O)N(c2ccc3c(c2)OCO3)C1` (stereo unspecified) registered an RP-LC retention time of 619 s.

As for `O=C(C1CCCCC1)N1CCN(c2cc(-c3ccc(Cl)cc3)[nH]n2)CC1`, the RP-LC retention time was determined as 910 s.

Turning to `CCOC(=O)C1CCN(c2ncccc2-c2nnc(-c3ccc(C)cc3)o2)CC1`, the RP-LC retention time was 1140 s.

Take `Cc1nc(-c2cc(S(=O)(=O)Nc3ccc(Br)cc3F)c(C)s2)cs1`: the RP-LC retention time stood at 1070 s.

In turn, `O=c1c2cnc3ncnn3c2ccn1C1CC1` displayed an RP-LC retention time of 583 s.

The compound `CCc1nc2ccccc2c(=O)n1Cc1noc(-c2cccc(OC)c2)n1` gave an RP-LC retention time of 998 s.

For the compound `CN(C)S(=O)(=O)c1ccc(-c2nnc(C(=O)NCCN3CCCC3)o2)cc1`, the RP-LC retention time amounted to 574 s.

On to `Cc1nnsc1C(=O)N1CCC(CNC(=O)Cn2c(=O)oc3ccccc32)CC1`, for which the RP-LC retention time worked out at 641 s.

On to `C=CCNC(=O)c1ccc(-n2nc(C)cc2C)nc1`, for which the RP-LC retention time was 739 s.

In turn, `CCCCNC(=O)C1CCCN(c2nnc(C)c3c(C)n(-c4ccc(C)cc4)nc23)C1` (stereo unspecified) showed an RP-LC retention time of 733 s.

Compound `CCc1nn2c(CNC(=O)c3ccc(OC)c(F)c3)c(-c3ccccc3)nc2s1` came in with an RP-LC retention time of 912 s.

As for `Cc1cnc(C2CN(CC3CCCCC3)C2)n1Cc1ccccc1`, the RP-LC retention time stood at 600 s.

`CCCNC(=O)C1CCCN(c2ccc(SCC(=O)Nc3ccc(C(=O)OCC)cc3)nn2)C1` (stereo unspecified) displayed an RP-LC retention time of 701 s.

`CS(=O)(=O)N1CCN(C(=O)CCc2csc(NC(=O)c3ccc(F)cc3)n2)CC1` returned an RP-LC retention time of 666 s.

In turn, `O=C(c1ccc(=O)[nH]n1)N1CCN(S(=O)(=O)C2CC2)CC1` came in with an RP-LC retention time of 552 s.

Turning to `Cc1nnc(NC(=O)CCc2csc(NC(=O)NC3CCCCC3)n2)s1`, the RP-LC retention time was 682 s.

With `O=C(N[C@@H]1CN(c2ncccn2)C[C@H]1CO)c1ccc2c(c1)OCO2`, the RP-LC retention time worked out at 606 s.

In the case of `O=C(NCc1ccc(F)cc1)c1cc(N2CCCC2)n2nccc2n1`, the RP-LC retention time was 957 s.

Take `CCN(CC)CCCNC(=O)c1cn(C)nc1S(=O)(=O)N1CCN(c2ccc(Cl)cc2)CC1`: the RP-LC retention time was found to be 729 s.

Compound `Cc1ccccc1N1CCN(C(=O)C2CC(=O)N(CCc3ccccc3)C2)CC1` (stereo unspecified) gave an RP-LC retention time of 725 s.

For the compound `O=C(CCCn1nnc2ccccc2c1=O)Nc1ccccc1Cl`, the RP-LC retention time was determined as 770 s.

On to `Cc1ccc(S(=O)(=O)Nc2ccc(Nc3ccc(-n4cccn4)nn3)cc2)c(C)c1`, for which the RP-LC retention time stood at 829 s.

`Fc1cccc2sc(NCc3ccccn3)nc12`: the RP-LC retention time was determined as 594 s.

As for `CCNS(=O)(=O)c1cccnc1Nc1ccc(F)cc1`, the RP-LC retention time came to 942 s.

`O=C(Cn1c(=O)oc2ccc(C(=O)N3CCCCC3)cc21)N1CCc2ccccc2C1` showed an RP-LC retention time of 804 s.

In the case of `O=C(Cn1ncccc1=O)Nc1cccc(-c2cn3c(n2)SCC3)c1`, the RP-LC retention time amounted to 530 s.
